The values below come from patent US4707481A, “Pyridazinones, their preparation and use, and bronchospasmolytic medicaments containing pyridazinones” (BYK Gulden Lomberg Chemische Fabrik GmbH, priority 1983, dated 1987).

Data set [1] has as its system electrically stimulated left atrium of rats. Briefly: positive inotropic action on electrically stimulated left atrium in vitro. Details: species or system rat. Conditions: for [EC40 pot.] theophylline / [EC40 pot.] substance: Column E, left atrium; for EC40: Rattus norvegicus, Column B, negative logarithm of EC40pot in mol/l, 40% increase in contraction force, read-out: -lg[EC40 pot.] left atrium (converted).
Description: The positive inotropic action was tested in vitro on the electrically stimulated left atrium of rats (l.a.).
The positive inotropic action of the compounds was tested in vitro on the electrically stimulated left atrium of rats.
Isometric contractions (HSE force sensor K-30; Watanabe recorder, Linear Corder Mark 5) of isolated, left atria from rats (.male., 250-300 g) in an organ bath (10 ml, Tyrode nutrient solution, 31° C., gassing with carbogen, initial tension of the organs 0.25 g) under electrical stimulation (HSE stimulator, 7 V, 3 ms, 2 Hz) were recorded. […] The particular increase in the contraction force is expressed in % of the starting value before administration of the substance. The concentration of the test substance which potentiates the contraction force of the atrium by 40% compared with the starting value [EC40pot. mol/l], expressed by the negative logarithm of the [EC40pot mol/l]: -lg[EC40pot ] serves as a measure of the cardiotonic activity.

Data set [2] in a line: toxicity studies, mouse p.o. The note with it: in vivo, po; for tolerated dose: mouse, 10080 min; for LD50 at 168 h: Column F, mouse p.o., 7 days observation, read-out: Approximate LD50. The method, then: The toxicity studies are carried out on female NMRI mice (body weight 23-30 g). The animals (5 animals per dose) receive food and water ad libitum. Various doses of the substances are administered once as a suspension in methocel via a gavage. The period of observation lasts 7 days. The tolerated dose (TD), that is to say the highest dose at which as yet none of the animals die, is determined by observation. The average lethal dose (LD50), that is to say the dose at which 50% of the animals die, is determined from the dose/action curve by means of linear regression.

Data set [3] has as its system chain of tracheal rings of guinea pigs. Briefly: relaxing action on chain of tracheal rings in vitro (bronchospasmolytic action). Details: species or system guinea pig. Conditions: for EC50: Cavia porcellus, Column A, negative logarithm of EC50 in mol/l, 50% of maximum relaxation by (-)isoprenaline, read-out: -lg[EC50] trachea (converted); for [EC40 pot.] left atrium / [EC50] trachea: Column C, measure of organ-selective activity; for [EC50] theophylline / [EC50] substance: Column D, trachea.
Description: The relaxing action of the 6-aryl-3[2H]pyridazinones I has been tested in vitro on a chain of tracheal rings (Tr.) of guinea pigs. […] The quotient of [EC40pot. ]left atrium and [ED50 ]trachea serves as a measure of the organ-selective activity.
The bronchospasmolytic action of the compounds on the chain of tracheal rings of the guinea pig was tested in vitro:
Four parallel chains of tracheal rings, each consisting of 6 individual rings, of guinea pigs(.male. and .female., 430-600 g) in an organ bath [5 ml, Krebs-Henseleit solution with added phentolamine (10^-5 mol/l), 37° C., initial tension of the organs 2 g, gassing with carbogen] develop a stable, spontaneous tonic contraction after about 20 to 30 minutes. […] Over a period of 20 to 30 minutes, a complete dose/action curve of the test substance is thus obtained. The particular relaxation is expressed as a percentage fraction of the maximum relaxation which can be achieved by administration of (-)isoprenaline (10^-6 mol/1). The concentration of the test substance which causes 50% of the maximum relaxation which can be achieved, expressed by the negative logarithm of the EC50 mol/l: -lg[EC50 ]is a measure of the bronchodilator activity.

Data set [4] deals with acetylcholine-induced bronchospasm. Briefly: protective effect against acetylcholine-induced bronchospasm in conscious guinea pigs. In kind it is in vivo, guinea pig. The note with it: 100 μmol/kg p.o.; for Tripling of the latency period: figure in parentheses. The method, then: The figure in parentheses indicates the number out of 10 animals in which the latency period more than tripled.
The latency period is to be understood to be the time from the start of acetylcholine-atomization until clear signs of asthma appeared.
The time from the start of atomization to the onset of clear respiratory exertion (in certain circumstances, hypoxic convulsion in the lateral position) is measured, and is denoted the latency period.
The test substance is administered orally by gavage (standard dose 100 μmol/kg, volume 1 ml of 4% strength methocel suspension in 0.9% strength sodium chloride solution/kg). […] Prolongation of the latency period to at least twice its length is regarded as a protective effect.

Data set [5] deals with guinea pig hearts isolated and perfused by the Langendorff method. Briefly: left-ventricular pressure and heart rate in isolated perfused Langendorff hearts. Conditions: for Emax: Cavia porcellus. An excerpt:
After the animals have been sacrificed by a blow to the neck and exsanguination through the carotid arteries, the thoracic cavity is opened, and the aorta is exposed and looped up with a thread. A cannula, which is attached by tubing to the apparatus from which the nutrient solution slowly drops, is introduced in the direction of the heart and the heart is, quickly after removal from the thorax, connected to the perfusion apparatus. A balloon probe, connected to a Statham pressure sensor, is advanced through a cut through the left atrium into the left ventricle, and is provided with an initial pressure of 40 mm Hg. […] The nutrient solution flowing freely from the coronary sinus into the right atrium is measured with a flow […]) and, together with the change in the left-ventricular pressure and the heart rate determined from this, is recorded on a Watanabe recorder. The substances are administered in a volume of 0.1 ml of nutrient solution, in the dosage indicated in Tab.

The subject of data set [6] is histamine-induced bronchospasm. Briefly: inhibition of histamine-induced bronchospasm in anesthetized guinea pigs. In kind it is in vivo, guinea pig. On the procedure:
A method for simultaneously recording pharmacodynamic and toxic effects on internal sensitive receptors, on the respiration and the cardiovascular system of guinea pigs was used [U. Kilian, E. Muller, E. Ch. […] To characterize the bronchospasm induced by histamine (0.09-0.18 μmol /kg i.v.), the maximum flow rate of the respiratory air during inspiration (Vmaxi) and expiration (Vmaxe) and the breath volume (BVi) were measured. A histamine spasm before administration of the substance was compared with several histamine spasms after administration of the substance. The test substances were administered intravenously (i.v.) and/or intrajejunally (i.j.). 5 to 10 animals were used per measurement, and the arithmetic mean was calculated from the results.

Data set [7] has as its system right ventricle of guinea pigs. Briefly: heart function dP/dtmax, right ventricle of anesthetized guinea pigs. It is filed as in vivo, guinea pig. On the procedure: The effect of the substances on the contractility of the heart of guinea pigs is tested on animals (.male., 400 to 1000 g) under urethane anesthesia. The change in pressure in the right ventricle of the heart is measured with a tip catheter introduced through the right jugular vein and the maximum rate of pressure rise (dP/dtmax) is determined from this. The heart rate is derived from the pressure waves. […] The test substances were administered intravenously. 5-7 animals were used for each measurement, and the arithmetic mean was calculated from the results.

Where two headings read alike, the source gives them in different places.

Usually EC50 stands for the concentration at which the effect is half-maximal. For the compound `CCCCOc1ccc(-c2ccc(=O)[nH]n2)cc1OC` [Serial No. 3, 6-(4-n-butoxy-3-methoxyphenyl)-3[2H]pyridazinone], in data set [1], the “[EC40 pot.] theophylline / [EC40 pot.] substance” value was found to be 63.2 and the EC40 is 6.61 µM. In data set [2], this compound came in with a tolerated dose above 761. Also, in data set [3], the EC50 is 2510 nM, the “[EC40 pot.] left atrium / [EC50] trachea” value worked out at 2.6 and the “[EC50] theophylline / [EC50] substance” value came to 53.8.

In general, LD50 refers to the dose expected to kill half of the subjects tested. With `CCOc1cc(-c2ccc(=O)[nH]n2)ccc1OC` [compound 8], in data set [1], the “[EC40 pot.] theophylline / [EC40 pot.] substance” value is listed as 316 and the EC40 is 1.32 µM. Also, the LD50 at 168 h in data set [2] was determined as 550 mg/kg. For the same compound, in data set [3], the half-maximal effective concentration (EC50) was 339 nM, the “[EC40 pot.] left atrium / [EC50] trachea” value stood at 3.9 and the “[EC50] theophylline / [EC50] substance” value is 398.

Turning to `COc1cc(-c2ccc(=O)[nH]n2)ccc1OC(C)C` [compound 1], the EC40 in data set [1] was 22.4 µM. In addition, the 50% lethal dose (LD50) at 168 h in data set [2] worked out at 270 mg/kg. Moreover, in data set [3], the EC50 was 1910 nM.

As a reminder, the Emax is the maximal effect, on the per cent scale that the assay sets. Take `Cn1c(=O)c2[nH]cnc2n(C)c1=O` [Theophylline, theophylline, reference compound]: the EC40 in data set [1] was 417 µM. Also, the “Doubling of the latency period” value in data set [4] (30 min) is reported as 6 N of 10 animals; in data set [4] (45 min after administration) it was 3 N of 10 animals. In addition, the results for the “Tripling of the latency period” value in data set [4] (30 min) and in data set [4] (45 min after administration) were 4 N of 10 animals and 2 N of 10 animals, respectively. Moreover, the Emax was found to be 16% in data set [5] (after 3000 nMol, read-out: Emax left-ventricular pressure) and 5% in data set [5] (at Emax, 3000 nMol, read-out: Percentage increase in heart rate at Emax). Besides, the EC20 left-ventricular pressure entry in data set [5] (dose which leads to a 20% increase in left ventricular pressure) is listed as “is not reached”. The “inhibition of histamine-induced bronchospasm, TVi” value (“inhibition … TVi” for short) in data set [6] (20 μmol/kg i.v., 2 min) was determined as 45%; in data set [6] (20 μmol/kg i.v., 10 min), 5%; in data set [6] (20 μmol/kg i.v., 20 min), 5%; in data set [6] (20 μmol/kg i.v., 30 min) it was 10%; in data set [6] (60 μmol/kg i.j., 2 min), 7%; in data set [6] (60 μmol/kg i.j., 10 min), 35%. Further, the “inhibition … TVi” value in data set [6] (60 μmol/kg i.j., 20 min) was determined as 41%; in data set [6] (60 μmol/kg i.j., 30 min), 37%; in data set [6] (60 μmol/kg i.j., 45 min), 33%; in data set [6] (60 μmol/kg i.j., 60 min), 37%; in data set [6] (60 μmol/kg i.v., 2 min), 78%; in data set [6] (60 μmol/kg i.v., 10 min), 27%. For the same compound, the “inhibition … TVi” value in data set [6] (60 μmol/kg i.v., 20 min) came out at 16%; in data set [6] (60 μmol/kg i.v., 30 min), 16%; in data set [6] (60 μmol/kg i.v., 60 min), 3%. Also, the “inhibition of histamine-induced bronchospasm, Vmaxe” value (shortened to “inhibition … Vmaxe”) is listed as 51% in data set [6] (20 μmol/kg i.v., 2 min); 10% in data set [6] (20 μmol/kg i.v., 10 min); 9% in data set [6] (20 μmol/kg i.v., 20 min); 13% in data set [6] (20 μmol/kg i.v., 30 min); 8% in data set [6] (60 μmol/kg i.j., 2 min); 33% in data set [6] (60 μmol/kg i.j., 10 min). For the same compound, the “inhibition … Vmaxe” value came to 41% in data set [6] (60 μmol/kg i.j., 20 min); 40% in data set [6] (60 μmol/kg i.j., 30 min); 33% in data set [6] (60 μmol/kg i.j., 45 min); 32% in data set [6] (60 μmol/kg i.j., 60 min); 79% in data set [6] (60 μmol/kg i.v., 2 min); 27% in data set [6] (60 μmol/kg i.v., 10 min). The “inhibition … Vmaxe” value in data set [6] (60 μmol/kg i.v., 20 min) is 15%; in data set [6] (60 μmol/kg i.v., 30 min), 15%; in data set [6] (60 μmol/kg i.v., 60 min), 8%. The “inhibition of histamine-induced bronchospasm, Vmaxi” value (from here on “inhibition … Vmaxi”) in data set [6] (20 μmol/kg i.v., 2 min) is 49%; in data set [6] (20 μmol/kg i.v., 10 min), 11%; in data set [6] (20 μmol/kg i.v., 20 min) it was 8%; in data set [6] (20 μmol/kg i.v., 30 min) it was 8%; in data set [6] (60 μmol/kg i.j., 2 min), 6%; in data set [6] (60 μmol/kg i.j., 10 min) it was 42%. Also, the “inhibition … Vmaxi” value in data set [6] (60 μmol/kg i.j., 20 min) turned out to be 46%; in data set [6] (60 μmol/kg i.j., 30 min), 45%; in data set [6] (60 μmol/kg i.j., 45 min) it was 39%; in data set [6] (60 μmol/kg i.j., 60 min), 39%; in data set [6] (60 μmol/kg i.v., 2 min) it was 95%; in data set [6] (60 μmol/kg i.v., 10 min), 38%. The “inhibition … Vmaxi” value in data set [6] (60 μmol/kg i.v., 20 min) turned out to be 19%; in data set [6] (60 μmol/kg i.v., 30 min), 18%; in data set [6] (60 μmol/kg i.v., 60 min), 7%. The “Percentage change in dP/dtmax” value in data set [7] (10 μmol/kg i.v., 0-10 min (Maximum)) was determined as 59%; in data set [7] (10 μmol/kg i.v., 10 min) it was 12%; in data set [7] (10 μmol/kg i.v., 30 min), 20%; in data set [7] (30 μmol/kg i.v., 0-10 min (Maximum)), 92%; in data set [7] (30 μmol/kg i.v., 10 min) it was 53%; in data set [7] (30 μmol/kg i.v., 30 min), 67%. The “Percentage change in dP/dtmax” value in data set [7] (100 μmol/kg i.v., 0-10 min (Maximum)) stood at 147%; in data set [7] (100 μmol/kg i.v., 10 min) it was 135%; in data set [7] (100 μmol/kg i.v., 30 min) it was 112%.

As for `COc1cc(-c2ccc(=O)[nH]n2)ccc1OCCC(C)C` [Serial No. 6, 6-[3-methoxy-4-(3-methylbutoxy)-phenyl]-3[2H]pyridazinone], in data set [1], the “[EC40 pot.] theophylline / [EC40 pot.] substance” value turned out to be 4.6 and the EC40 is 91.2 µM. The compound also returned a tolerated dose in data set [2] above 800. For the same compound, in data set [3], the EC50 was 708 nM, the “[EC40 pot.] left atrium / [EC50] trachea” value worked out at 219 and the “[EC50] theophylline / [EC50] substance” value is given as 190.

Turning to `COc1ccc(-c2ccc(=O)[nH]n2)cc1OCCC(C)C` [compound 12], in data set [1], the EC40 was above 1000 µM. Moreover, the LD50 at 168 h in data set [2] turned out to be 960 mg/kg. Moreover, in data set [3], the concentration giving a half-maximal response (EC50) was 501 nM, the “[EC40 pot.] left atrium / [EC50] trachea” value was 2000 and the “[EC50] theophylline / [EC50] substance” value came to 269.
